Assay results taken from patent publication US5610320A, “Sulfonamide phenyl substituted compounds” (Eisai Co., Ltd., priority 1990, dated 1997).
Values after ≈ are worked out from the molar mass of the structure shown.

Each molecule was assayed on KB cells (human nasopharyngeal cells) (assay: In vitro antineoplastic test on KB cells (MTT, 3 days)). Conditions: 72 h, KB cells in vitro, 37° C. for three days, MTT, read-out: IC50.
Format: cell-based
Description: In vitro antineoplastic test on KB cells (human nasopharyngeal cells):
1.25×10^3 (0.1 ml) of KB cells suspended in a RPMI 1640 medium (a product of Nissui Seiyaku Co., Ltd.) containing 20% of bovine fetus serum, penicillin (100 units/ml), streptomycin (100 μg/ml), mercaptoethanol (5×10^-5 M) and sodium pyruvate (1 mM) were placed in each hole of a 96-hole flat-bottom microplate and cultured in an incubator containing 5% of carbon dioxide at 37° C. for one day.
This concentration was the maximum one, which was subjected to two-fold serial dilution with 0.1% bovine fetus serum RPMI 1640 culture liquid containing 0.5% of dimethyl sulfoxide. It was added to the KB cells in each hole of the above-described culture plate in an amount of 0.1 ml and cultured in an incubator containing 5% of carbon dioxide at 37° C. for three days.
After the completion of the culture, 0.05 ml of MTT [3-(4,5-dimethylthiazol-2-yl)-2,5-diphenyltetrazolium bromide] solution (3.3 mg/ml) was added to each hole and the culture was conducted for an additional 1 h. The supernatant liquid was removed from each hole by suction and a formazan thus formed was dissolved in 0.1 ml of dimethyl sulfoxide. The absorbance at 540 nm was determined with a microplate reader to use as an index of a viable count. A percentage inhibition was calculated according to the following formula and the concentration of the test compound for 50% inhibition (IC50) was determined.
Percentage inhibition (%)=(C-T)/C×100
T: absorbance of the hole containing the test compound
C: absorbance of the hole containing no test compound

Structure (SMILES) | IC50 [µg/mL]
COCOc1ccc(Nc2ncccc2NS(=O)(=O)c2ccc(OC)cc2)cc1 [Example 5, 4-Methoxy-N-[2-[(4-methoxymethyloxyphenyl)amino]-3-pyridyl-]benzenesulfonamide] | 0.73 (≈ 1.76 µM)
COc1ccc(S(=O)(=O)Nc2cccnc2Nc2ccc(C)cc2)cc1 [Example 8, 4-Methoxy-N-[2-[(4-methylphenyl)amino]-3-pyridyl]benzenesulfonamide] | 0.89 (≈ 2.41 µM)
COc1ccc(S(=O)(=O)Nc2cccnc2Nc2ccccc2F)cc1 [Example 9, N-[2-[(2-Fluorophenyl)amino]-3-pyridyl]-4-methoxybenzenesulfonamide] | 0.34 (≈ 0.911 µM)
COc1ccc(S(=O)(=O)Nc2cccnc2Nc2cccc(F)c2)cc1 [Example 10, N-[2-[(3-Fluorophenyl)amino]-3-pyridyl]-4-methoxybenzenesulfonamide] | 0.21 (≈ 0.562 µM)
COc1ccc(S(=O)(=O)Nc2cccnc2Nc2ccc(F)cc2)cc1 [Example 11, N-[2-[(4-Fluorophenyl)amino]-3-pyridyl]-4-methoxybenzenesulfonamide] | 0.33 (≈ 0.884 µM)
COc1ccc(S(=O)(=O)Nc2cccnc2Nc2cccc(OC)c2)cc1 [Example 13, 4-Methoxy-N-[2-[(3-methoxyphenyl)amino]-3-pyridyl]benzenesulfonamide] | 2.6 (≈ 6.75 µM)
COc1ccc(S(=O)(=O)Nc2cccnc2Nc2ccccc2OC)cc1 [Example 16, 4-Methoxy-N-[2-[(2-methoxyphenyl)amino]-3-pyridyl]benzenesulfonamide] | 1.5 (≈ 3.89 µM)
COc1ccc(S(=O)(=O)Nc2cccnc2Nc2cccc(C)c2)cc1 [Example 17, 4-Methoxy-N-[2-[(3-methylphenyl)amino]-3-pyridyl]benzenesulfonamide] | 0.94 (≈ 2.54 µM)
COc1ccc(S(=O)(=O)Nc2cccnc2Nc2ccccc2C)cc1 [Example 18, 4-Methoxy-N-[2-[2(2-methylphenyl)amino]-3-pyridyl]benzenesulfonamide] | 0.73 (≈ 1.98 µM)
Nc1ccc(S(=O)(=O)Nc2cccnc2Nc2ccccc2)cc1 [Example 21, 4-Amino-N-(2-anilino-3-pyridyl)benzenesulfonamide] | 1.1 (≈ 3.23 µM)
CCOc1ccc(S(=O)(=O)Nc2cccnc2Nc2ccccc2)cc1 [Example 27, N-(2-Anilino-3-pyridyl)-4-ethoxybenzenesulfonamide] | 1.4 (≈ 3.79 µM)
COc1ccc(S(=O)(=O)Nc2cccnc2Nc2cccc(O)c2)cc1 [Example 34, N-[2-[(3-Hydroxyphenyl)amino]-3-pyridyl]-4-methoxybenzenesulfonamide] | 0.11 (≈ 0.296 µM)
CCOc1ccc(Nc2ncccc2NS(=O)(=O)c2ccc(OC)cc2)cc1 [Example 35, N-[2-[(4-Ethoxyphenyl)amino]-3-pyridyl]-4-methoxybenzenesulfonamide] | 0.45 (≈ 1.13 µM)
COc1ccc(S(=O)(=O)Nc2cccnc2Nc2ccc(O)c(C)c2)cc1 [Example 36, N-[2-[(4-hydroxy-3-methylphenyl)amino]-3-pyridyl]-4-methoxybenzenesulfonamide] | 0.72 (≈ 1.87 µM)
CCOC(=O)c1ccc(Nc2ncccc2NS(=O)(=O)c2ccc(OC)cc2)cc1 [Example 37, Ethyl 4-[[3-(4-methoxybenzenesulfonamido)-2-pyridyl]amino]benzoate] | 1.3 (≈ 3.04 µM)
COc1ccc(S(=O)(=O)Nc2cccnc2Nc2ccc(Oc3ccccc3)cc2)cc1 [Example 40, 4-Methoxy-N-[2-[(4-phenoxyphenyl)amino]-3-pyridyl]benzenesulfonamide] | 2.1 (≈ 4.69 µM)
COc1ccc(S(=O)(=O)Nc2cccnc2Nc2ccc(Cl)cc2)cc1 [Example 42, N-[2-[(4-Chlorophenyl)amino]-3-pyridyl]-4-methoxybenzenesulfonamide] | 0.59 (≈ 1.51 µM)

Structure (SMILES) | IC50 [µg/mL]
COc1ccc(S(=O)(=O)Nc2cccnc2Nc2ccccc2O)cc1 [Example 43, N-[2-[(2-Hydroxyphenyl)amino]-3-pyridyl]-4-methoxybenzenesulfonamide] | 0.26 (≈ 0.7 µM)
COc1ccc(S(=O)(=O)Nc2c(Nc3ccccc3)ncnc2OC)cc1 [Example 47, N-(4-Anilino-6-methoxy-5-pyrimidyl)-4-methoxybenzenesulfonamide] | 2.6 (≈ 6.73 µM)
COc1ccc(S(=O)(=O)Nc2ccc(OC)nc2Nc2ccccc2)cc1 [Example 54, N-(2-Anilino-6-methoxy-3-pyridyl)-4-methoxybenzene sulfonamide] | 0.54 (≈ 1.4 µM)
COc1ccc(S(=O)(=O)Nc2ccccc2Nc2ncccn2)cc1 [Example 57, 4-Methoxy-N-[2-[(2-pyrimidyl)amino]phenyl]benzenesulfonamide] | 0.17 (≈ 0.477 µM)
COc1ccc(S(=O)(=O)Nc2ccccc2Nc2ccccc2)cc1 [Example 58, N-(2-Anilinophenyl)-4-methoxybenzenesulfonamide] | 1.2 (≈ 3.39 µM)
COc1ccc(S(=O)(=O)Nc2cccnc2Nc2ccc(OC(=O)c3ccccc3)cc2)cc1 [Example 59, N-[2-[(4-Benzoyloxyphenyl)amino]-3-pyridyl]-4-methoxybenzenesulfonamide] | 0.18 (≈ 0.379 µM)
COc1ccc(S(=O)(=O)Nc2cccnc2Nc2ccc(OC(=O)CN)cc2)cc1.Cl.Cl [Example 61, N-[2-[[4-(Aminoacetyloxy)phenyl]amino]-3-pyridyl]-4-methoxybenzenesulfonamide dihydrochloride] | 0.83
COc1ccc(Nc2ncccc2N(C)S(=O)(=O)c2ccc(OC)cc2)cc1 [Example 62, 4-Methoxy-N-[2-[(4-methoxyphenyl)amino]-3-pyridyl]-N-methylbenzenesulfonamide] | 0.53 (≈ 1.33 µM)
COc1ccc(S(=O)(=O)Nc2cccnc2Nc2ccc(OC(=O)c3ccccc3N)cc2)cc1 [Example 63, N-[2-[[4-(2-Aminobenzoyloxy)phenyl]amino]-3-pyridyl]-4-methoxybenzenesulfonamide] | 0.2 (≈ 0.408 µM)
COc1ccc(S(=O)(=O)Nc2cccnc2Nc2ccc(OP(=O)(O)O)cc2)cc1 [Example 64, 4-[[3-(4-Methoxybenzenesulfonamido)-2-pyridyl]amino]phenyl dihydrogenphosphate] | 0.55 (≈ 1.22 µM)
COc1ccc(S(=O)(=O)Nc2cccnc2Nc2cccc(OP(=O)(O)O)c2)cc1 [Example 65, 3-[[3-(4-Methoxybenzenesulfonamido)-2-pyridyl]amino]phenyl dihydrogenphosphate] | 0.2 (≈ 0.443 µM)
COc1ccc(S(=O)(=O)Nc2ccccc2Nc2ccc(O)cc2)cc1 [Example 67, N-[2-[(4-Hydroxyphenyl)amino]phenyl]-4-methoxybenzenesulfonamide] | 1.4 (≈ 3.78 µM)
COc1ccc(S(=O)(=O)Nc2cccnc2Nc2ccc(OC(=O)C(C)(C)C)cc2)cc1 [Example 68, 4-Methoxy-N-[2-[(4-pivaloyloxyphenyl)amino]-3-pyridyl]benzenesulfonamide] | 0.17 (≈ 0.373 µM)
COc1ccc(S(=O)(=O)Nc2ccccc2NC(=O)c2cnccc2C)cc1 [Example 71, N-[2-(4-Methoxybenzenesulfonamido)phenyl]-4-methylnicotinamide] | 0.11 (≈ 0.277 µM)
COc1ccc(S(=O)(=O)Nc2ccccc2NC(=O)c2ccncc2C)cc1 [Example 72, N-[2-(4-Methoxybenzenesulfonamido)phenyl]-3-methylisonicotinamide] | 0.012 (≈ 0.0302 µM)
COc1ccc(S(=O)(=O)Nc2ccccc2Nc2ccccn2)cc1 [Example 76, 4-Methoxy-N-[2-[(2-pyridyl)amino]phenyl]benzenesulfonamide] | 0.13 (≈ 0.366 µM)

Same assay, conditions: KB, 72 h

Structure (SMILES) | IC50 [µg/mL]
COc1ccc(S(=O)(=O)Nc2cccnc2Nc2ccc(OC(=O)N(C)C)cc2)cc1 [Example 52, N-[2-[(4-Dimethylcarbamoyloxyphenyl)amino]-3-pyridyl]-4-methoxybenzenesulfonamide] | 0.54 (≈ 1.22 µM)
